Measured values as given in patent US10526327B2, “Histone demethylase inhibitors” (CELGENE QUANTICEL RESEARCH, INC., priority 2013, dated 2020).

Columns and labels:
Jarid1B = target: T1, Jarid1B (Homo sapiens, UniProt Q9UGL1); test: Jarid1B in vitro enzyme inhibition assay (TR-FRET); format: biochemical
T1 construct: purchased BPS Bioscience or custom made by MolecularThroughput 50121
T1 sequence (Q9UGL1 2-751): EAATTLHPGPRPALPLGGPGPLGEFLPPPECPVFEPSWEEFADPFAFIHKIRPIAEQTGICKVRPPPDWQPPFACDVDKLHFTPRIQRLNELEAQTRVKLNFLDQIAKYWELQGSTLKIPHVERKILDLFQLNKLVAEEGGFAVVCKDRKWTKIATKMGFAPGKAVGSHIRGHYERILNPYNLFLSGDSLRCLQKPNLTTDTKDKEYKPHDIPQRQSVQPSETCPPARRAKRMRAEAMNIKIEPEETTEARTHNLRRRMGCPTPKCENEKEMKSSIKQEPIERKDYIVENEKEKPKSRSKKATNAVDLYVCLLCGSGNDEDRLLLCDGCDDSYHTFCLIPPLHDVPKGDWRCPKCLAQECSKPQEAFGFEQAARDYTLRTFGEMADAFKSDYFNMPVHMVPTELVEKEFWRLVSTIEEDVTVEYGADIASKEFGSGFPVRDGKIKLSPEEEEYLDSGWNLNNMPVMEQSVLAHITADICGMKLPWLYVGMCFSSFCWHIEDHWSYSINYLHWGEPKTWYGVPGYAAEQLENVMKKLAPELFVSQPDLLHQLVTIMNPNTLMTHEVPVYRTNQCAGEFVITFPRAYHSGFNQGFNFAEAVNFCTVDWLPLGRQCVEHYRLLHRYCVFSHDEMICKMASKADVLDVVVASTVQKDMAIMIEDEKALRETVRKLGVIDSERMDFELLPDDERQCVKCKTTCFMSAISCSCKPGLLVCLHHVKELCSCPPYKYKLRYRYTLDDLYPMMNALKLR
Text: (§1) This assay determines the ability of a test compound to inhibit Jarid1A, Jarid1B, and JMJD2C demethylase activity. Baculovirus expressed Jarid1A (GenBank Accession #NM_001042603, AA1-1090) was purchased from BPS Bioscience (Cat#50110). Baculovirus expressed Jarid1B (GenBank Accession #NM_006618, AA 2-751) was purchased from BPS Bioscience (Cat #50121) or custom made by MolecularThroughput. Baculovirus expressed JMJD2C (GenBank Accession #BC143571, AA 2-372) was purchased from BPS Bioscience (Cat#50105).
The ability of test compounds to inhibit the activity of Jarid1B was determined in 384-well plate format under the following reaction conditions: 0.8 nM Jarid1B, 300 nM H3K4me3-biotin labeled peptide (Anaspec cat #64357), 2 μM alpha-ketoglutaric acid in assay buffer of 50 mM HEPES, pH7.3, 0.005% Brij35, 0.5 mM TCEP, 0.2 mg/ml BSA, 50 μM sodium L-ascorbate, and 2 μM ammonium iron(II) sulfate. Reaction product was determined quantitatively by TR-FRET after the addition of detection reagent Phycolink Streptavidin-allophycocyanin (Prozyme) and Europium-anti-mono-or di-methylated histone H3 lysine 4 (H3K4me1-2) antibody (PerkinElmer) in the presence of 5 mM EDTA in LANCE detection buffer (PerkinElmer) at a final concentration of 25 nM and 1 nM, respectively.
(§2) The assay reaction was initiated by the following: 2 μl of the mixture of 900 nM H3K4me3-biotin labeled peptide and 6 μM alpha-ketoglutaric acid with 2 μl of 11-point serial diluted inhibitor in 3% DMSO was added to each well of the plate, followed by the addition of 2 μl of 2.4 nM Jarid1B to initiate the reaction. The reaction mixture was incubated at room temperature for 30 minutes, and terminated by the addition of 6 μl of 5 mM EDTA in LANCE detection buffer containing 50 nM Phycolink Streptavidin-allophycocyanin and 2 nM Europium-anti-H3K4me1-2 antibody. Plates were read by EnVisionMultilabel Reader in TR-FRET mode (excitation at 320 nm, emission at 615 nm and 665 nm) after 1 hour incubation at room temperature. A ratio was calculated (665/615) for each well and fitted to determine inhibition constant (IC50).

JMJD2C = target: T2, JMJD2C (Homo sapiens, UniProt Q9H3R0); test: JMJD2C in vitro enzyme inhibition assay (TR-FRET); format: biochemical
T2 construct: purchased BPS Bioscience 50105
T2 sequence (Q9H3R0 2-372): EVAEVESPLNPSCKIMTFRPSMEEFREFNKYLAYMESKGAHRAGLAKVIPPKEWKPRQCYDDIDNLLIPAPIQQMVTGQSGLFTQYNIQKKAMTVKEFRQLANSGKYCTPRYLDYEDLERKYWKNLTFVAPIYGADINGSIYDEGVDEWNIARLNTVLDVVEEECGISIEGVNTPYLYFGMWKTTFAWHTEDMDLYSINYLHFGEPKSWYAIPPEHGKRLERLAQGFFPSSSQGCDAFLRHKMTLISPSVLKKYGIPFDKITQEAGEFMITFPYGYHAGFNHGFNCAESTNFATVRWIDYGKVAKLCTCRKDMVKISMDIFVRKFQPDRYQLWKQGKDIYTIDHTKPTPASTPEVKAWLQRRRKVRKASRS
Text: as §1
The ability of test compounds to inhibit the activity of JMJD2C was determined in 384-well plate format under the following reaction conditions: 0.3 nM JMJD2C, 300 nM H3K9me3-biotin labeled peptide (Anaspec cat #64360), 2 μM alpha-ketoglutaric acid in assay buffer of 50 mM HEPES, pH7.3, 0.005% Brij35, 0.5 mM TCEP, 0.2 mg/ml BSA, 50 μM sodium L-ascorbate, and 2 μM ammonium iron(II) sulfate. Reaction product was determined quantitatively by TR-FRET after the addition of detection reagent Phycolink Streptavidin-allophycocyanin (Prozyme) and Europium-anti-di-methylated histone H3 lysine 9 (H3K9me2) antibody (PerkinElmer) in the presence of 5 mM EDTA in LANCE detection buffer (PerkinElmer) at a final concentration of 50 nM and 1 nM, respectively.
as §2, with “nM H3K9me3-biotin” for “nM H3K4me3-biotin”, “DMSO were” for “DMSO was”, “of 0.9” for “of 2.4”, “nM JMJD2C” for “nM Jarid1B”, “containing 100” for “containing 50”, “nM Europium-anti-H3K9me2” for “nM Europium-anti-H3K4me1-2”

Row | IC50 (Jarid1B) [nM] | IC50 (JMJD2C) [nM] | SMILES
1 | 100 to 1000 | 100 to 1000 | Oc1nc(Oc2ccccc2F)nc2cnccc12 [Example 46, 2-(2-fluorophenoxy)pyrido[3,4-d]pyrimidin-4-ol]
2 | ≤ 100 | 100 to 1000 | Oc1nc(Oc2ccc(F)cc2)nc2cnccc12 [Example 47, 2-(4-fluorophenoxy)pyrido[3,4-d]pyrimidin-4-ol]
3 | ≤ 100 | ≤ 100 | Oc1nc(Oc2ccc(Cl)cc2)nc2cnccc12 [Example 49, 2-(4-chlorophenoxy)pyrido[3,4-d]pyrimidin-4-ol]
4 | ≤ 100 | 100 to 1000 | CN(C)c1cccc(Oc2nc(O)c3ccncc3n2)c1 [Example 50, 2-[3-(dimethylamino)phenoxy]pyrido[3,4-d]pyrimidin-4-ol]
5 | ≤ 100 | ≤ 100 | CC(C)CCn1cc(Oc2nc(O)c3ccncc3n2)cn1 [Example 55, 2-{[1-(3-methylbutyl)pyrazol-4-yl]oxy}pyrido[3,4-d]pyrimidin-4-ol]
6 | ≤ 100 | 100 to 1000 | CCCc1cccc(Oc2nc(O)c3ccncc3n2)c1 [Example 58, 2-(3-propylphenoxy)pyrido[3,4-d]pyrimidin-4-ol]
7 | ≤ 100 | 100 to 1000 | CN(C)c1ccc(Oc2nc(O)c3ccncc3n2)cc1 [Example 59, 2-[4-(dimethylamino)phenoxy]pyrido[3,4-d]pyrimidin-4-ol]
8 | ≤ 100 | 100 to 1000 | O=C(c1cc(F)cc(Oc2nc(O)c3ccncc3n2)c1)N1CCOCC1 [Example 60]
9 | ≤ 100 | 100 to 1000 | COCCn1cc(Oc2nc(O)c3ccncc3n2)cn1 [Example 64, 2-{[1-(2-methoxyethyl)-1H-pyrazol-4-yl]oxy}pyrido[3,4-d]pyrimidin-4-ol]
10 | ≤ 100 | 100 to 1000 | COCCCn1cc(Oc2nc(O)c3ccncc3n2)cn1 [Example 65, 2-{[1-(3-methoxypropyl)-1H-pyrazol-4-yl]oxy}pyrido[3,4-d]pyrimidin-4-ol]
11 | ≤ 100 | 100 to 1000 | Cn1cnc(-c2nccc3c(O)nc(OCC(F)(F)F)nc23)c1 [Example 70, 8-(1-methyl-1H-imidazol-4-yl)-2-(2,2,2-trifluoroethoxy)pyrido[3,4-d]pyrimidin-4-ol]

The remaining lines, values behind:

Row | SMILES | IC50 (Jarid1B) [nM] | IC50 (JMJD2C) [nM]
12 | COc1ccc(Oc2nc(O)c3ccncc3n2)cc1 [Example 48, 2-(4-methoxyphenoxy)pyrido[3,4-d]pyrimidin-4-ol] | ≤ 100 | ≤ 100
13 | Oc1nc(Oc2cccc(C(F)(F)F)c2)nc2cnccc12 [Example 52, 2-[3-(trifluoromethyl)phenoxy]pyrido[3,4-d]pyrimidin-4-ol] | ≤ 100 | 100 to 1000
14 | COc1ccc(Oc2nc(O)c3ccncc3n2)cc1F [Example 53, 2-(3-fluoro-4-methoxyphenoxy)pyrido[3,4-d]pyrimidin-4-ol] | ≤ 100 | 100 to 1000
15 | CCCn1cc(Oc2nc(O)c3ccncc3n2)cn1 [Example 54, 2-(1-propylpyrazol-4-yl)oxypyrido[3,4-d]pyrimidin-4-ol] | ≤ 100 | 100 to 1000
16 | Oc1nc(Oc2cnn(C3CCCC3)c2)nc2cnccc12 [Example 56, 2-[(1-cyclopentylpyrazol-4-yl)oxy]pyrido[3,4-d]pyrimidin-4-ol] | ≤ 100 | ≤ 100
17 | CCc1cccc(Oc2nc(O)c3ccncc3n2)c1 [Example 57, 2-(3-ethylphenoxy)pyrido[3,4-d]pyrimidin-4-ol] | ≤ 100 | ≤ 100
18 | COCCn1ncc2ccc(Oc3nc(O)c4ccncc4n3)cc21 [Example 61, 2-{[1-(2-methoxyethyl)-1H-indazol-6-yl]oxy}pyrido[3,4-d]pyrimidin-4-ol] | ≤ 100 | 100 to 1000
19 | CCn1cc(Oc2nc(O)c3ccncc3n2)cn1 [Example 62, 2-[(1-ethyl-1H-pyrazol-4-yl)oxy]pyrido[3,4-d]pyrimidin-4-ol] | ≤ 100 | ≤ 100
20 | CC(C)n1cc(Oc2nc3cnccc3c(=O)[nH]2)cn1 [Example 63, 2-{[1-(propan-2-yl)-1H-pyrazol-4-yl]oxy}pyrido[3,4-d]pyrimidin-4-ol] | ≤ 100 | 100 to 1000
21 | Oc1nc(Oc2cnn(Cc3ccccc3)c2)nc2cnccc12 [Example 66, 2-[(1-benzyl-1H-pyrazol-4-yl)oxy]pyrido[3,4-d]pyrimidin-4-ol] | ≤ 100 | ≤ 100
22 | Oc1nc(Oc2cnn(C3CCOCC3)c2)nc2cnccc12 [Example 67, 2-{[1-(tetrahydro-2H-pyran-4-yl)-1H-pyrazol-4-yl]oxy}pyrido[3,4-d]pyrimidin-4-ol] | ≤ 100 | 100 to 1000
23 | COc1nc(O)c2ccnc(-c3cn(C)cn3)c2n1 [Example 68, 2-methoxy-8-(1-methyl-1H-imidazol-4-yl)pyrido[3,4-d]pyrimidin-4-ol] | ≤ 100 | 100 to 1000
24 | CCOc1nc(O)c2ccnc(-c3cn(C)cn3)c2n1 [Example 69, 2-ethoxy-8-(1-methyl-1H-imidazol-4-yl)pyrido[3,4-d]pyrimidin-4-ol] | ≤ 100 | 100 to 1000
25 | Cn1cnc(-c2nccc3c(O)nc(OCc4ccc(F)cc4)nc23)c1 [Example 71, 2-[(4-fluorobenzyl)oxy]-8-(1-methyl-1H-imidazol-4-yl)pyrido[3,4-d]pyrimidin-4-ol] | ≤ 100 | 100 to 1000
26 | Cn1cnc(-c2nccc3c(O)nc(OCC4CC4)nc23)c1 [Example 72, 2-(cyclopropylmethoxy)-8-(1-methylimidazol-4-yl)pyrido[3,4-d]pyrimidin-4-ol] | ≤ 100 | 100 to 1000
27 | Cn1cnc(-c2nccc3c(O)nc(OCCCC(F)(F)F)nc23)c1 [Example 74, 8-(1-methylimidazol-4-yl)-2-(4,4,4-trifluorobutoxy)pyrido[3,4-d]pyrimidin-4-ol] | ≤ 100 | 100 to 1000
